According to US20220073496A1, “NOVEL QUINOLINE DERIVATIVE INHIBITOR” (Nanjing Transthera Biosciences Co., Ltd., priority 2018, published 2022):

Assays:
[1] = Stability in liver microsome of dogs; assay type: in vitro ADME; conditions: liver microsomes; Dog liver microsome 0.5 mg protein/mL, compound 1 μM, 37° C.
Procedure: Assay 1: Stability assessment of the compounds of the present invention in liver microsome of mice and dogs
(§1) Test substances: the compounds of the present invention, wherein the structures and preparations thereof were as described above.
The composition of the incubation system:
Preparation of Test Substances:
An appropriate amount of the compound was accurately weighed and dissolved in DMSO to prepare a 5.0 mM stock solution. The 5.0 mM stock solution was diluted to 1.0 mM with DMSO, and finally diluted with water to a 10 μM test substance working solution for use (the DMSO content in the reaction system was 0.1%).
(1) The liver microsome (20 mg protein/mL) was taken out from the −80° C. refrigerator, pre-incubated at 37° C. with a water-bathing constant temperature vibrator for 3 minutes, and melted for use.
(2) A mixed solution of the incubation system (excluding compounds and β-NADPH) according to the above “composition of the incubation system” for the assay was prepared, and pre-incubated at 37° C. with a water-bathing constant temperature vibrator for 2 minutes.
(3) Control group (excluding β-NADPH): 30 μL of water and 30 μL of compound working solution (10 μM) were added to 240 μL of the mixed solution of the incubation system of step (2), and vortexed for 30 seconds to mix well. The total reaction volume was 300 μL. A duplicate sample was prepared. The sample was incubated at 37° C. with a water-bathing constant temperature vibrator. The timekeeping began and the sampling time points were set at 0 minute and 60 minutes.
(4) Sample group: 70 μL of β-NADPH solution (10 mM) and 70 μL of compound working solution (10 μM) were added to 560 μL of the mixed solution of step (2). The total reaction volume was 700 μL. The resulting mixture was vortexed for 30 seconds to mix well. A duplicate sample was prepared. The sample was incubated at 37° C. with a water-bathing constant temperature vibrator. The timekeeping began and the sampling time points were set at 0 minute, 5 minutes, 10 minutes, 20 minutes, 30 minutes, and 60 minutes after timekeeping.
(5) After vortexing for 3 minutes, the sample was centrifuged at 4000 rpm for 10 minutes.
(6) 50 μL of the supernatant was taken and 150 μL of water was added. The resulting mixture was vortexed to mix well, and analyzed by LC/MS/MS.
The half-life (t1/2) and clearance rate (Cl) were calculated using the following first-order kinetic formula:
Vd=1/protein content in liver microsome
Note: k was the slope of the logarithm of the remaining amount of the compound versus time, and Vd was the apparent distribution volume.

[2] = molecular target: T1, Mer (h) (Homo sapiens, UniProt Q12866); experiment: Enzymatic activity test, Mer (h); assay type: biochemical; conditions: 10 μM [γ-33P]-ATP, 40 minutes, room temperature
T1 construct: purchased
T1 sequence (Q12866 21-999): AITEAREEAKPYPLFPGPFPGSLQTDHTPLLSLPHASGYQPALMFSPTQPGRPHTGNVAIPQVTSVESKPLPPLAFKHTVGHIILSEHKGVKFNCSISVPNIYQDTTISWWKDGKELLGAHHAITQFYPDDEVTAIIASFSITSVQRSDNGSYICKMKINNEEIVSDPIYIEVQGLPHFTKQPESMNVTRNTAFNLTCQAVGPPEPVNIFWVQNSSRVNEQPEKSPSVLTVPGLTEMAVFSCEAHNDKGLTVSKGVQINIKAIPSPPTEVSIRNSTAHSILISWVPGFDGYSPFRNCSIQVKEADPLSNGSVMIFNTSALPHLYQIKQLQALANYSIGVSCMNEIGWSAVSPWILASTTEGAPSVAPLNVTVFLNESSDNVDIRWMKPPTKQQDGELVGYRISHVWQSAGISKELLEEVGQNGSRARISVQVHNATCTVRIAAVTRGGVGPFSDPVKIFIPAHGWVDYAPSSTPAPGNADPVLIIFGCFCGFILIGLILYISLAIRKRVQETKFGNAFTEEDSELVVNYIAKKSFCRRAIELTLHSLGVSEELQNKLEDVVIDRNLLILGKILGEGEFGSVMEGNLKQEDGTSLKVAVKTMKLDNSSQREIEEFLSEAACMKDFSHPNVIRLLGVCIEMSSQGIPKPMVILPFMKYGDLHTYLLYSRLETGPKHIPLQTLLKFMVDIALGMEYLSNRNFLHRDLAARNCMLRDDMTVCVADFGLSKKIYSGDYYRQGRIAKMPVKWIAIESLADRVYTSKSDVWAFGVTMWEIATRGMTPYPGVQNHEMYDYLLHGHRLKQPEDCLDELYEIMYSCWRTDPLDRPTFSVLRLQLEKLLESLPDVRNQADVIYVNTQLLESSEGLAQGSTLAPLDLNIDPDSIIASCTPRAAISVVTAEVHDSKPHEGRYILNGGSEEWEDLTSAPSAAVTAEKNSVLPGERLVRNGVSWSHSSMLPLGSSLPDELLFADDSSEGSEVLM
Procedure: Assay 3: Enzymatic Activity Test of the Compounds of the Present Invention
as §1
(1) Preparation of the Compound Stock Solution
The compound was dissolved in 100% DMSO to prepare a stock solution with a maximum concentration of 500 μM.
(2) Preparation of the Compound Working Solution
The compound stock solution was diluted to final concentrations of 500, 150, 50, 15, 5, 1.5, 0.5, 0.15 and 0.05 μM to become the compound working solutions (50×).
(3) Preparation of Different Enzyme Reaction Solutions
The Mer (h) enzyme was dissolved in 8 mM MOPS (pH 7.0), 0.2 mM EDTA, 30 mM NaCl, and 250 μM GGMEDIYFEFIVIGGKKK to prepare an enzyme solution having a final concentration of 3.1 nM. The enzymatic reaction was activated by using 10 mM magnesium acetate and 10 μM [γ-^33P]-ATP to form an Mg/ATP mixed solution.
In a 384-well plate, the compound working solution was added to final concentrations of 10000, 3000, 1000, 300, 100, 30, 10, 3, and 1 nM. Then different enzyme reaction solutions prepared according to the above conditions were added. The incubation was carried out for 40 minutes at room temperature. The test was terminated by the addition of a 0.5% phosphoric acid solution. 10 μL of the reaction solution was taken and dropped to the P30 filter paper. The filter paper was washed 4 times with 0.425% phosphoric acid solution and once with methanol, and then placed on a scintillation counter. The […] IC50 values were calculated using GraphPad 5.0 software.

Row | half-life at 1 μM [1] [h] | microsomal CLint at 1 μM [1] [µL/min/mg] | IC50 [2] [nM] | SMILES
1 | 2.18 | 10.6 | 1 | COc1cc2nccc(Oc3ccc(NC(=O)c4nn(C(C)C)cc(-c5ccc(F)cc5)c4=O)cn3)c2cc1OC [Compound 29, N-(6-((6,7-dimethoxyquinolin-4-yl)oxy)pyridin-3-yl)-1-isopropyl-4-oxo-5-para-fluorophenyl-1,4-dihydropyridazine-3-carboxamide]
2 | 2.82 | 8.2 | < 1 | COc1cc2nccc(Oc3ncc(NC(=O)c4nn(C5CC5)cc(-c5ccc(F)cc5)c4=O)cn3)c2cc1OC [Compound 37, 1-cyclopropyl-N-(2-((6,7-dimethoxyquinolin-4-yl)oxy)pyrimidine-5-yl)-5-para-fluorophenyl-4-oxo-1,4-dihydropyridazine-3-carboxamide]
3 | 6.08 | 3.8 | 3 | COc1cc2nccc(Oc3cnc(NC(=O)c4cn(C(C)C)cc(-c5ccc(F)cc5)c4=O)nc3)c2cc1OC [Compound 20, N-(5-((6,7-dimethoxyquinolin-4-y)oxy)pyrimidine-2-yl)-5-(4-fluorophenyl)-1-isopropyl-4-oxo-1,4-dihydropyridin-3-carboxamide]
4 | 8.25 | 2.8 | 2 | COc1cc2nccc(Oc3cnc(NC(=O)c4nn(C(C)C)cc(-c5ccc(F)cc5)c4=O)nc3)c2cc1OC [Compound 16, N-(5-((6,7-dimethoxyquinolin-4-yl)oxy)pyrimidine-2-yl)-5-(4-fluorophenyl)-1-isopropyl-4-oxo-1,4-dihydropyridazine-3-carboxamide]
